Test results: patent publication US11596615B2, “Compositions and methods for treatment of insulin resistance” (Temple University—Of The Commonwealth System Of Higher …, priority 2016, dated 2023)
Structures can show the parent of a compound that is named as a salt.

Tests used:
3T3-L1 adipocytes [1] = assay: Effect of 4-HNE and H2O2 on insulin-induced glucose uptake by 3T3-L1 adipocytes; type: cell-based, mouse; conditions: 500 μM for 4 hour, then 100 nM insulin 60 minutes; FIG. 2
Method: 3T3-L1 adipocytes (1×10^6) were treated with either 500 μM of 4-HNE or H2O2 or combination of both for 4 hour and were then stimulated with 100 nM insulin for 60 minutes. The glucose uptake was measured by a specific MRM method.

3T3-L1 adipocytes [2] = assay: Restoring glucose uptake in insulin-stimulated 3T3-L1 cells exposed to 4-HNE and H2O2 (FIG. 13); type: cell-based, mouse; conditions: 10 μM pretreatment 12 hours, then 4HNE and H2O2 4 hours; for glucose uptake impairment induced by 4-HNE and H2O2: FIG. 13
Method: Insulin-stimulated 3T3-L1 adipocytes were pretreated with the drug (S)-2-amino-6-((3-aminopropyl)amino)hexanoic acid dihydrochloride (10 μM) for 12 hours followed by exposure to 4HNE and H2O2 for an additional 4 hours. The amounts of glucose taken up by the 3T3-L1 adipocytes were measured by the MRM methods described above. The results in FIG. 13 show the effect of the drug in restoring glucose uptake in insulin-stimulated 3T3-L1 cells exposed to 4-HNE and H2O2: Control cells, no insulin (C− No Ins); control cells, with insulin (C+ Ins); 4HNE+H2O2-treated cells (4HNE/H2O2) and cells treated with drug+4HNE+H2O2 (“APL”).
Insulin-stimulated 3T3-L1 adipocytes were pretreated with the drug (S)-2-amino-5-((6-aminohexyl)amino)pentanoic acid dihydrochloride (10 μM) for 12 hours followed by exposure to 4HNE and H2O2 for an additional 4 hours. The amounts of glucose taken up by the 3T3-L1 adipocytes were measured by the MRM methods described above. FIG. 13 includes the results: cells treated with (S)-2-amino-5-((6-aminohexyl)amino)pentanoic acid trihydrochloride (MC-180351).
Insulin-stimulated 3T3-L1 adipocytes were pretreated with the drug (S)-2-amino-5-(([…])amino)pentanoic acid dihydrochloride (10 μM) for 12 hours followed by exposure to 4HNE and H2O2 for an additional 4 hours. The amounts of glucose taken up by the 3T3-L1 adipocytes were measured by the MRM methods described above. FIG. 13 includes the results: cells treated with (S)-2-amino-5-((5-aminopentyl)amino)pentanoic acid trihydrochloride (MC-180352).

GLUT4 = GLUT4 carbonylation (K264-HNE adduct) in 3T3-L1 cells overexpressing GLUT4, MRM; type: cell-based; conditions: 20 μM for 4 hour, FIG. 1A-1B
Method: A GLUT4-SNAP fusion construct was generated. 3T3-L1 adipocytes were then retrovirally transduced with the construct to overexpress the GLUT4-SNAP protein. Twenty-four hours after the transduction, the cells were treated with and without 20 μM of 4-HNE for an additional 4 hours. This 4-HNE dose was chosen because it was similar to the physiological levels and was non-toxic. In order to identify and quantitate GLUT4 carbonylation (K264 NHE-adduct or R265 and R246 glutamic semialdehyde adducts), a mass spectroscopy-based multiple reaction monitoring (MRM) method was developed and validated.

SMILES | reduction of glucose uptake (3T3-L1 adipocytes [1]) | GLUT4 carbonylations (3T3-L1 adipocytes [2]) | glucose uptake impairment induced by 4-HNE and H2O2 (3T3-L1 adipocytes [2]) | formation of K264-HNE GLUT4 adduct (GLUT4)
OO [Example H2O2, H2O2] | 66% | – | – | –
NCCCCCCNCCC[C@H](N)C(=O)O [MC-180351, (S)-2-amino-5-((6-aminohexyl)amino)pentanoic acid trihydrochloride] | – | reduce GLUT4 carbonylations | prevent glucose uptake impairment induced by 4-HNE and H2O2 | –
CCCCCC(O)/C=C/C=O (stereo not shown) [Example 4-HNE, 4-hydroxynonenal] | 32% | – | – | induced the formation of the K264-HNE adduct
NCCCCCNCCC[C@H](N)C(=O)O [MC-180352, (S)-2-amino-5-((5-aminopentyl)amino)pentanoic acid trihydrochloride] | – | reduce GLUT4 carbonylations | prevent glucose uptake impairment induced by 4-HNE and H2O2 | –
